{"source": "patent US20230041563A1", "about": "“N-(1,3,4-OXADIAZOL-2-YL)ARYLCARBOXAMIDES OR SALTS THEREOF, PREPARATION METHODS, HERBICIDAL COMPOSITIONS AND USES THEREOF” (priority 2018, published 2023)", "key": {"[1]": {"test_system": "Monochoria vaginalis", "assay": "Transplanted rice safety evaluation and weed control effect evaluation in rice field", "format": "in vivo", "conditions": "Table 7, dose 125 g a.i./ha, 14 days after treatment", "outline": "(§1)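 Paddy-soil pots, seeds sown and flooded (0.5-1 cm, then 3-4 cm water); Sagittaria grown from tubers. WP or SC dilutions dripped on at 0.5-leaf stage (Sagittaria at primary leaf). Visual 0-5 scoring of weeds at 14 days, rice at 21 days.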"}, "[2]": {"test_system": "Scirpus juncoides", "assay": "Transplanted rice safety evaluation and weed control effect evaluation in rice field", "format": "in vivo", "conditions": "Table 7, dose 125 g a.i./ha, 14 days after treatment", "outline": "as §1"}, "[3]": {"test_system": "Echinochloa crusgali", "assay": "Transplanted rice safety evaluation and weed control effect evaluation in rice field", "format": "in vivo", "conditions": "Table 7, dose 125 g a.i./ha, 14 days after treatment", "outline": "as §1"}, "[4]": {"test_system": "Stellaria media", "assay": "Weeding effect in post-emergence stage (greenhouse pot spray)", "format": "in vivo", "outline": "(§2)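 Greenhouse post-emergence test: compounds were sprayed at 500, 250, 125, 60 and 15 g a.i./ha onto plants 2 weeks after sowing, and fresh weight control rates were averaged from three replicates 3 weeks later.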"}, "[5]": {"test_system": "Amaranthus retroflexus", "assay": "Weeding effect in post-emergence stage (greenhouse pot spray)", "format": "in vivo", "outline": "as §2"}, "[6]": {"test_system": "Abutilon theophrasti", "assay": "Weeding effect in post-emergence stage (greenhouse pot spray)", "format": "in vivo", "outline": "as §2"}, "[7]": {"test_system": "Digitaria sanguinalis", "assay": "Weeding effect in post-emergence stage (greenhouse pot spray)", "format": "in vivo", "outline": "as §2"}, "[8]": {"test_system": "Setaria viridis", "assay": "Weeding effect in post-emergence stage (greenhouse pot spray)", "format": "in vivo", "conditions": "Table 3, dose 60 g a.i./ha", "outline": "as §2"}, "[9]": {"test_system": "Echinochloa crusgalli", "assay": "Weeding effect in post-emergence stage (greenhouse pot spray)", "format": "in vivo", "outline": "as §2"}, "[10]": {"test_system": "Rice", "assay": "Transplanted rice safety evaluation and weed control effect evaluation in rice field", "format": "in vivo, rice (japonica rice/Indica rice)", "conditions": "Table 7, dose 125 g a.i./ha, 21 days after treatment", "outline": "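Japonica and Indica rice at 3-leaf stage transplanted into flooded paddy soil (3-4 cm water). Compound applied 5 days after transplanting. Weeds scored visually on 0-5 scale at 14 days; rice injury at 21 days.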"}}}
{"compound": "CCSc1c(C(F)(F)F)ccc(C(=O)Nc2nnc(C)o2)c1F", "note": "[Compound 1-4]", "values": [{"measurement": "Monochoria vaginalis (activity level)", "setting": "[1]", "result": "5 (Level 5: growth control rate is above 85%)"}, {"measurement": "Scirpus juncoides (activity level)", "setting": "[2]", "result": "5 (Level 5: growth control rate is above 85%)"}, {"measurement": "Echinochloa crusgali (activity level)", "setting": "[3]", "result": "5 (Level 5: growth control rate is above 85%)"}, {"measurement": "Stellaria media (activity level)", "setting": "[4]; Table 2, dose 125 g a.i./ha", "result": "5 (Level 5: growth control rate is above 85%)"}, {"measurement": "Stellaria media (activity level)", "setting": "[4]; Table 2, dose 250 g a.i./ha", "result": "5 (Level 5: growth control rate is above 85%)"}, {"measurement": "Amaranthus retroflexus (activity level)", "setting": "[5]; Table 2, dose 125 g a.i./ha", "result": "5 (Level 5: growth control rate is above 85%)"}, {"measurement": "Amaranthus retroflexus (activity level)", "setting": "[5]; Table 2, dose 250 g a.i./ha", "result": "5 (Level 5: growth control rate is above 85%)"}, {"measurement": "Abutilion theophrasti (activity level)", "setting": "[6]; Table 2, dose 125 g a.i./ha", "result": "5 (Level 5: growth control rate is above 85%)"}, {"measurement": "Abutilion theophrasti (activity level)", "setting": "[6]; Table 2, dose 250 g a.i./ha", "result": "5 (Level 5: growth control rate is above 85%)"}, {"measurement": "Abutilon theophrasti (activity level)", "setting": "[6]; Table 3, dose 60 g a.i./ha", "result": "5 (Level 5: growth control rate is above 85%)"}, {"measurement": "Digitaria sanguinalis (activity level)", "setting": "[7]; Table 2, dose 125 g a.i./ha", "result": "5 (Level 5: growth control rate is above 85%)"}, {"measurement": "Digitaria sanguinalis (activity level)", "setting": "[7]; Table 2, dose 250 g a.i./ha", "result": "5 (Level 5: growth control rate is above 85%)"}, {"measurement": "Digitaria sanguinahs (activity level)", "setting": "[7]; Table 3, dose 60 g a.i./ha", "result": "5 (Level 5: growth control rate is above 85%)"}, {"measurement": "Setaria viridis (activity level)", "setting": "[8]", "result": "5 (Level 5: growth control rate is above 85%)"}, {"measurement": "Echinochloa crusgah (activity level)", "setting": "[9]; Table 2, dose 125 g a.i./ha", "result": "5 (Level 5: growth control rate is above 85%)"}, {"measurement": "Echinochloa crusgah (activity level)", "setting": "[9]; Table 2, dose 250 g a.i./ha", "result": "5 (Level 5: growth control rate is above 85%)"}, {"measurement": "Rice (safety level)", "setting": "[10]", "result": "0 (Level 0: growth control rate is less than 5%)"}]}
